Measured values reported in patent publication US4999371A, “Substituted 3,4-dihydro-2H-benzopyrans, processes for their preparation, their use and pharmaceutical products based on these compounds” (Hoechst Aktiengesellschaft, priority 1987, dated 1991).

System: Langendorff heart preparation
Experiment: Coronary flow in the Langendorff heart preparation of Guinea pigs
Settings: 6 heart preparations
Method: Coronary flow in the Langendorff heart preparation of Guinea pigs
Guinea pigs of either sex were killed by a blow on the head. The hearts were quickly removed and perfused according to Langendorff (Langendorff, Pflugers Arch. Ges. Physiol. 190, 280 (1895)) with a Ringer solution containing 154 mMol NaCl, 5,6 mMol KCl, 1,9 mMol CaCl2, 2,4 mMol NaHCO3 and 5 mMol glucose which was gassed with oxygen. The temperature of the solution was 37° C. The test substances dissolved in propanediol (0,1%) were added to the inflowing Ringer solution by bolus injection into the inflow tract. The effect, i.e. changes of the coronary outflow, was measured with a drop counter and registered on a Hellige Multiscriptor (Hellige GmbH, Freiburg, Germany) For each compound increase in coronary outflow was measured for three different doses and each dose was tested in 6 different heart preparations.

SMILES | Duration of elevated coronary outflow (single dose 500 ng) [min] | also measured
CC1(C)Oc2ccc(S(C)(=O)=O)cc2[C@@H](N2CCCC2=O)[C@@H]1O (racemic) [(±)-2,2-Dimethyl-3,4-dihydro-6-methylsulfonyl-trans-4-(2-oxo-1-pyrrolidinyl)-2H-benzo[b]pyran-3-ol, reference compound] |  | Duration of elevated coronary outflow (single dose 2000 ng): 5 min
CC1(C)Oc2ccc(C#N)cc2[C@@H](N2CCCC2=O)[C@@H]1O (racemic) [(±)-6-Cyano-3,4-dihydro-2,2-dimethyl-trans-4-(2-oxo-1-pyrrolidinyl)-2H-benzo[b]pyran-3-ol, reference compound] | 6 | 
COc1cc2c(cc1S(=O)(=O)c1ccccc1)[C@@H](N1CCCC1=O)[C@H](O)C(C)(C)O2 (relative stereo) [Example 3, 3,4-Dihydro-2,2-dimethyl7-methoxy-6-phenylsulfonyl-trans-4-(2-oxo-1-pyrrolidinyl)-2H -benzo[b]-3-ol] | 14 | 
Cc1ccc(S(=O)(=O)c2ccc3c(c2)[C@@H](N2CCCC2=O)[C@H](O)C(C)(C)O3)cc1 (relative stereo) [Example 4, 3,4-Dihydro-2,2-dimethyl-6-(4-methylphenylsulfonyl)-trans-4-(2-oxo-1-pyrrolidinyl)-2H -benzo[b]pyran-3-ol] | 11 | 
CC1(C)Oc2ccc(S(=O)(=O)c3ccccc3)cc2[C@@H](N2CCCC2=O)[C@@H]1O (relative stereo) [Example 5, 3,4-Dihydro-2,2-dimethyl-6-phenylsulfonyl-trans-4-(2-oxo1-pyrrolidinyl)-2H-benzo[b]pyran-3-ol] |  | Duration of elevated coronary outflow (single dose 400 ng): 11 min
Cc1ccccc1S(=O)(=O)c1ccc2c(c1)[C@@H](N1CCCC1=O)[C@H](O)C(C)(C)O2 (relative stereo) [Example 14, 3,4-Dihydro-2,2-dimethyl-6-(2-methylphenylsulfonyl)-trans4-(2-oxo-1-pyrrolidinyl)-2H-benzo [b]pyran-3-ol] |  | Duration of elevated coronary outflow (single dose 200 ng): 13 min
CC1(C)Oc2ccc(S(=O)(=O)c3ccccc3)cc2[C@@H](N2CCCC2=O)[C@@H]1O (single isomer, unassigned) [Example 5a, (+)-3,4-Dihydro-2,2-dimethyl-6-phenylsulfonyl-4-(2-oxo-1-pyrrolidinyl)-2H-benzo[b]pyran-3-ol] |  | Duration of elevated coronary outflow (single dose 100 ng): 13 min
COc1cc2c(cc1S(=O)(=O)c1ccccc1)[C@@H](N1CCCC1=O)[C@H](O)C(C)(C)O2 [Example 3a, (+)-3,4-dihydro-2,2-dimethyl-7-methoxy-6-phenylsulfonyl-trans-4-(2-oxo-1-pyrrolidinyl)-2H-benzo[b]pyran-3-ol] | 11 | 
